Tests used:
[1] = Penetration kinetics of Mometasonfuroat, Franz diffusion cell, HPLC; assay type: in vitro ADME, human
Experimental: Um den Einfluss von monomerem beta-Keratin auf die Pharmakokinetik von Wirkstoffen nachzuweisen, wurde in einer halbfesten Cremematrix (Monovo® 1 mg/g Creme) gelöstes Mometasonfuroat, als Modellwirkstoff mit 2% Keratinpartikeln versetzt und zur Ausbildung von nicht-kovalenten Proteine-Wirkstoff-Konjugaten homogen verrührt und inkubiert. Zur Objektivierung der pharmakokinetischen Unterschiede wurde eine Diffusionskinetik der Formulierung ohne und mit Beimischung von Keratinpartikeln vergleichend bestimmt.
In der vorliegenden Studie wurde eine HPLC-Methode zur Quantifizierung von Mometasonfuroat in Proben aus der Penetrationsstudie verwendet. Es wurde eine analytische HPLC-UV-Methode entwickelt und validiert. Zur Bestimmung der Wiederfindung wurden dazu 3 Proben der Prüfformulierung mit 1,8 mL Lösungsmittel 1 h lang inkubiert (Laborschüttler, 150 U/min), anschließend zentrifugiert (13.000 U/min, 10 min) und gemessen. Die Wiederfindungsraten wurden mit den experimentell ermittelten Konzentrationen der Prüfgegenstände berechnet. Werte zwischen 95 % und 105 % wurden als unbeeinflusst und damit als korrekt angenommen.
Für jede Testformulierung wurden drei Humanhautproben, d. h. von drei verschiedenen Spendern untersucht. Jede Hautprobe ergab drei Stanzbiopsien zu drei verschiedenen Zeitpunkten, d. h. insgesamt […] Proben je Testformulierung. […]

[2] = system: Chorion-Allantois-Membran; assay: HET-CAM, preclinical tolerability; design: species or system Gallus gallus domesticus
Experimental: Als Screening hinsichtlich der Hautverträglichkeit der Keratinpartikel wurde dieses in eine halbfeste Formulierung eingearbeitet und an der Chorion-Allantois-Membran von acht- bis neuntägigen Gallus gallus domesticus Embryonen (Rasse: New Hampshire) getestet.
Die Hautverträglichkeit der Keratinpartikel wurde an der Chorion-Allantois-Membran von acht- bis neuntägigen Hühnerembryonen getestet. Befruchtete Hühnereier wurden hierfür acht bis neun Tage lang bei 37°C und 55 % Luftfeuchtigkeit bebrütet. Alle 12 Stunden wurden die Eier gewendet, ausgenommen die letzten 24 Stunden vor Versuchsbeginn. Die Öffnung der Eier wurde an den nach oben gerichteten Eierpolen durchgeführt, wofür die Eierschalen kreisrund (Ø 1,5 cm) geöffnet wurden. Nach dem Abnehmen der Eischalen wurden die Eihäute mit einer 37°C warmen 0,9%-igen NaCl-Lösung befeuchtet. Anschließend wurden unter der Sterilbank die äußeren Eihäute mittels Schere und Pinzette entfernt und die Chorion-Allantois-Membranen freigelegt. […] Die halbfeste Keratinpartikel-haltige Formulierung konnte nun an den gut ausgebildeten und unbeschädigten Blutgefäßen der Chorion-Allantois-Membranen aufgetragen und getestet werden. Das Testpräparat wurde an insgesamt sechs Eiern getestet, maximal 30 Minuten nach der Öffnung der Eier.
Im Rahmen der HET-CAM Untersuchungen wurden von dem Testpräparat (2,88 mg/ml kolloidale Keratin-Lösung in 0,5 % Hydoxyethylcellulose-Gel) je 200 µl auf die Chorion-Allantois-Membran appliziert und diese für insgesamt 300 Sekunden beobachtet. Während dieser Zeit wurden die Veränderungen an der Membran, hinsichtlich des Zeitpunktes des Auftretens (Irritationsscore, IS) und der Festlegung des Schweregrades zum Ende der Beobachtungszeit, dokumentiert. Hierbei wurden folgende Kriterien bewertet: Hämorrhagien (H) - das Auftreten von Blutungen; Gefäßlyse (L) - das Transparentwerden von Gefäßen und Koagulation (C) - das Stagnieren des Blutflusses als Zeichen der intravasalen Gerinnung. Als Negativkontrolle wurde steriles Wasser und als Positivkontrolle eine 1 %-ige Natriumlaurysulfat-Lösung eingesetzt. Die Berechnung des Irritationsscores (IS) erfolgte anhand der ICCVAM-Kriterien.
Als Bewertungskriterien des ISs wurden folgende Grenzwerte definiert:
Der Schweregrad von Veränderungen zum Ende des Beobachtungszeitraums wurde nach den folgenden Kriterien eingestuft:
Die Hämorrhagie (H) wurde entsprechend des Ausmaßes von Erythrozytenextravasaten den Kategorien halbquantitativ wie folgt zugeordnet: Einzelne Kapillarblutungen bei morphologisch intakten Kapillaren wurden als leichte, multiple Kapillarblutungen bei morphologisch intakten Kapillaren als mäßige und morphologisch geschädigte Kapillaren mit Kapillarblutungen oder Massenblutungen als schwere Hämorrhagie eingestuft. Vereinzelte transparente Kapillarabschnitte wurden als leichte, die Transparenz von ganzen Kapillaren als mäßige und das Auftreten von kompletten Gefäßlysen als schwere Lyse bewertet. Die Koagulation (C) wurde entsprechend des Ausmaßes von Koagulationsphänomenen den Kategorien halbquantitativ wie folgt zugeordnet: Einzelne Kapillarthrombosen bei morphologisch intakten Kapillaren wurden als leichte, multiple Kapillarthrombosen bei morphologisch intakten Kapillaren als mäßige und geschädigte Kapillaren mit langstreckigen Kapillarthrombosen als schwere C eingestuft. Die eingesetzten Hühnereier wurden nach einer Lagerung für 48 Stunden bei -20°C, hygienisch entsorgt. Tab.

[3] = summary Tab. 7, mean severity after 300 s

Row | SMILES | kutane Bioverfügbarkeit [1] | IS-C ([2]; summary Tab. 7) | IS-Gesamt ([2]; summary Tab. 7) | IS-H ([2]; summary Tab. 7) | IS-L ([2]; summary Tab. 7) | SG-C [2, 3] | SG-H [2, 3] | SG-L [2, 3]
1 | C[C@@H]1C[C@H]2[C@@H]3CCC4=CC(=O)C=C[C@]4(C)[C@@]3(Cl)[C@@H](O)C[C@]2(C)[C@@]1(OC(=O)c1ccco1)C(=O)CCl [Mometasonfuroat] | keinen relevanten Einfluss |  |  |  |  |  |  | 
2 | CCCCCCCCCCCCOS(=O)(=O)O [1 % Natriumlaurylsulfat-Lösung, Natriumlaurylsulfat] |  | 6,01 | 9,80 | 2,89 | 0,90 | 3,00 | 1,67 | 0,42

From patent publication EP4659739A9, “TOPICAL FORMULATION COMPRISING NON-COVALENT KERATIN-ACTIVE AGENT CONJUGATES FOR THERAPEUTIC USE” (Rigi Therapeutics AG, priority 2024, dated 2025)
